Data reported in patent publication US7608619B2, “Substituted oxazole compounds with analgesic activity” (Gruenenthal GmbH, priority 2005, dated 2009).

Each compound was assayed against T1, human μ-opiate receptor (Homo sapiens, UniProt P35372) (assay: Affinity for the human μ-opiate receptor ([3H]-naloxone displacement, SPA, CHO-K1 membrane preparation)). Settings: test substance 1 μmole/l; displacement of 1 nmole/l [3H]-naloxone; percentage inhibition of the specific binding.
T1 construct: purchased Nen company, Zaventem, Belgium RB-HOM; host or cells: CHO-K1 cells (membrane preparation)
Description: Method for Determining the Affinity for the Human μ-Opiate Receptor
The receptor affinity for the human μ-opiate receptor is determined in a homogeneous batch in microtiter plates. For this purpose dilution series of the substances to be tested are incubated for 90 minutes at room temperature with a receptor membrane preparation (15-40 μg protein/250 μl incubation batch) of CHO-K1 cells, which express the human μ-opiate receptor (RB-HOM receptor membrane preparation from the Nen company, Zaventem, Belgium), in the presence of 1 nmole/l of the radioactive ligand [^3H]-naloxone (NET719, Nen company, Zaventem, Belgium) and 1 mg WGA-SPA beads (wheat germ agglutinin SPA beads from Amersham/Pharmacia, Freiburg, Germany) in a total volume of 250 μl. 50 mmole/l of Tris-HCl supplemented with 0.05% sodium azide and with 0.06% bovine serum albumin is used as incubation buffer. In order to determine the non-specific binding, 25 μmole/l of naloxone is additionally added. After the end of the 90 minutes' incubation time the microtiter plates are centrifuged for 20 minutes at 1000 g and the radioactivity is measured in a beta counter (Microbeta-Trilux, PerkinElmer Wallac, Freiburg, Germany). The percentage displacement of the radioactive ligand from its binding to the human μ-opiate receptor at a concentration of the test substances of 1 μmole/l is determined and is given as percentage inhibition of the specific binding.

T1 sequence (P35372 whole entry): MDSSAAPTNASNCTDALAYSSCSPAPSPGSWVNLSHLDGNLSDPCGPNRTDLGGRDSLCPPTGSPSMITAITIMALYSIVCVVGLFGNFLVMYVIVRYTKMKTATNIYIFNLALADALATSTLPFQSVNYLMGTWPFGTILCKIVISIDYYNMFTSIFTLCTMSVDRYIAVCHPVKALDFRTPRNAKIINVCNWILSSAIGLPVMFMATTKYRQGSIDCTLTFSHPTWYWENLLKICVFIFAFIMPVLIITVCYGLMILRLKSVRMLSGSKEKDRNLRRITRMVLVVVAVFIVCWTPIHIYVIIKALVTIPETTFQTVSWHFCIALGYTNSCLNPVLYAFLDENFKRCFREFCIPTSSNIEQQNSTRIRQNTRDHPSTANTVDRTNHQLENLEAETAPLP

Structure (SMILES)	μ-opioid receptor, % inhibition [1 μM] [%]
CN(CCc1ccccc1)c1oc(C(C2CCC(C(c3ccc(Cl)cc3)N(C)C)CC2)N(C)c2ccccc2)nc1Cc1ccccc1 (stereo not shown) [compound 43, {4-benzyl-2-[{4-[(4-chlorophenyl)-dimethylaminomethyl]-cyclohexyl}-(methylphenylamine)-methyl]-oxazol-5-yl}-methylphenethylamine]	72

Same assay, conditions: test substance 1 μmole/l; displacement of 1 nmole/l [3H]-naloxone; percentage inhibition of the specific binding; read-out: μ-opioid receptor, % inhibition [1 μM]

Structure (SMILES)	inhibition at 1 µM [%]
CCN(CC)c1oc(C(C2CCC(C(c3ccc(Cl)cc3)N(C)C)CC2)N2CCN(Cc3ccccc3)CC2)nc1Cc1ccccc1 (stereo not shown) [compound 44, [4-benzyl-2-((4-benzylpiperazin-1-yl)-{4-[(4-chlorophenyl)-dimethylaminomethyl]-cyclohexyl}-methyl)-oxazol-5-yl]-diethylamine]	67
CC1CC(C)CN(c2oc(C(C3CCC(C(c4cccs4)N(C)C)CC3)N3CCCCC3)nc2Cc2ccccc2)C1 (stereo not shown) [compound 45, [(4-{[4-benzyl-5-(3,5-dimethylpiperidin-1-yl)-oxazol-2-yl]-piperidin-1-yl-methyl}-cyclohexyl)-thiophen-2-yl-methyl]-dimethylamine]	71
CN(CCc1ccccc1)c1oc(C(C2CCC(C(c3cccs3)N(C)C)CC2)N2CCCCC2)nc1Cc1ccccc1 (stereo not shown) [compound 46, (4-benzyl-2-{[4-(dimethylaminothiophen-2-yl-methyl)-cyclohexyl]-piperidin-1-yl-methyl}-oxazol-5-yl)-methylphenethylamine]	80
CCN(CC)c1oc(C(C2CCC(C(c3cccs3)N(C)C)CC2)N2CCCCC2)nc1Cc1ccccc1 (stereo not shown) [compound 47, (4-benzyl-2-{[4-(dimethylamino-thiophen-2-yl-methyl)-cyclohexyl]-piperidin-1-yl-methyl}-oxazol-5-yl)-diethylamine]	73
CN(C)C(c1cccs1)C1CCC(C(c2nc(Cc3ccccc3)c(N3CCSCC3)o2)N2CCCCC2)CC1 (stereo not shown) [compound 48, ({4-[(4-benzyl-5-thiomorpholin-4-yl-oxazol-2-yl)-piperidin-1-yl-methyl]-cyclohexyl}-thiophen-2-yl-methyl)-dimethylamine]	60
CCN(CC)C(c1nc(Cc2ccccc2)c(N(C)CCc2ccccc2)o1)C1CCC(C(c2cccs2)N(C)C)CC1 (stereo not shown) [compound 49, (4-benzyl-2-{diethylamino-[4-(dimethylamino-thiophen-2-yl-methyl)-cyclohexyl]-methyl}-oxazol-5-yl)-methylphenethylamine]	90
CCN(CC)c1oc(C(C2CCC(C(c3cccs3)N(C)C)CC2)N(CC)CC)nc1Cc1ccccc1 (stereo not shown) [compound 50, (4-benzyl-2-{diethylamino-[4-(dimethylaminothiophen-2-yl-methyl)-cyclohexyl]-methyl}-oxazol-5-yl)-diethylamine]	83
CCN(CC)C(c1nc(Cc2ccccc2)c(N2CCCC(C)C2)o1)C1CCC(C(c2cccs2)N(C)C)CC1 (stereo not shown) [compound 51, {[4-benzyl-5-(3-methylpiperidin-1-yl)-oxazol-2-yl]-[4-(dimethylamino-thiophen-2-yl-methyl)-cyclohexyl]-methyl}-diethylamine]	100
CN(C)C(c1cccs1)C1CCC(C(c2nc(Cc3ccccc3)c(N3CCSCC3)o2)N(C)c2ccccc2)CC1 (stereo not shown) [compound 52, {(4-benzyl-5-thiomorpholin-4-yl-oxazol-2-yl)-[4-(dimethylaminothiophen-2-yl-methyl)-cyclohexyl]-methyl}-methylphenylamine]	92
CC1CC(C)CN(c2oc(C(C3CCC(C(c4cccs4)N(C)C)CC3)N3CCN(Cc4ccccc4)CC3)nc2Cc2ccccc2)C1 (stereo not shown) [compound 53, ({4-[[4-benzyl-5-(3,5-dimethylpiperidin-1-yl)-oxazol-2-yl]-(4-benzyl-piperazin-1-yl)-methyl]-cyclohexyl}-thiophen-2-yl-methyl)-dimethylamine]	86
CN(CCc1ccccc1)c1oc(C(C2CCC(C(c3cccs3)N(C)C)CC2)N2CCN(Cc3ccccc3)CC2)nc1Cc1ccccc1 (stereo not shown) [compound 54, (4-benzyl-2-{(4-benzyl-piperazin-1-yl)-[4-(dimethylaminothiophen-2-yl-methyl)-cyclohexyl]-methyl}-oxazol-5-yl)-methyl-phenethylamine]	74
CN(C)C(c1cccs1)C1CCC(C(c2nc(Cc3ccccc3)c(N3CCSCC3)o2)N2CCN(Cc3ccccc3)CC2)CC1 (stereo not shown) [compound 55, ({4-[(4-benzylpiperazin-1-yl)-(4-benzyl-5-thiomorpholin-4-yl-oxazol-2-yl)-methyl]-cyclohexyl}-thiophen-2-yl-methyl)-dimethylamine]	63
CN(C)C(c1ccc(Cl)cc1)C1CCC(CC(c2nc(Cc3ccccc3)c(N3CCN(Cc4ccccc4)CC3)o2)N2CCCCC2)CC1 (stereo not shown) [compound 56, [(4-{2-[4-benzyl-5-(4-benzyl-piperazin-1-yl)-oxazol-2-yl]-2-piperidin-1-yl-ethyl}-cyclohexyl)-(4-chlorophenyl)-methyl]-dimethylamine]	62
CC1CCN(c2oc(C(CC3CCC(C(c4ccc(Cl)cc4)N(C)C)CC3)N3CCCCC3)nc2Cc2ccccc2)CC1 (stereo not shown) [compound 57, [(4-{2-[4-benzyl-5-(4-methylpiperidin-1-yl)-oxazol-2-yl]-2-piperidin-1-yl-ethyl}-cyclohexyl)-(4-chlorophenyl)-methyl]-dimethylamine]	64
CN(Cc1ccccc1)c1oc(C(CC2CCC(C(c3ccc(Cl)cc3)N(C)C)CC2)N2CCCCC2)nc1Cc1ccccc1 (stereo not shown) [compound 58, Benzyl-[4-benzyl-2-(2-{4-[(4-chlorophenyl)-dimethylaminomethyl]-cyclohexyl}-1-piperidin-1-yl-ethyl)-oxazol-5-yl]-methylamine]	73
CCN(CC)C(CC1CCC(C(c2ccc(Cl)cc2)N(C)C)CC1)c1nc(Cc2ccccc2)c(N2CCC(Cc3ccccc3)CC2)o1 (stereo not shown) [compound 59, (1-[4-benzyl-5-(4-benzylpiperidin-1-yl)-oxazol-2-yl]-2-{4-[(4-chlorophenyl)-dimethylaminomethyl]-cyclohexyl}-ethyl)-diethylamine]	60
CCN(CC)C(CC1CCC(C(c2ccc(Cl)cc2)N(C)C)CC1)c1nc(Cc2ccccc2)c(N2CCC(C)CC2)o1 (stereo not shown) [compound 60, (1-[4-benzyl-5-(4-methylpiperidin-1-yl)-oxazol-2-yl]-2-{4-[(4-chlorophenyl)-dimethylaminomethyl]-cyclohexyl}-ethyl)-diethylamine]	68
CCN(CC)C(CC1CCC(C(c2ccc(Cl)cc2)N(C)C)CC1)c1nc(Cc2ccccc2)c(N(C)Cc2ccccc2)o1 (stereo not shown) [compound 61, Benzyl-[4-benzyl-2-(2-{4-[(4-chlorophenyl)-dimethylaminomethyl]-cyclohexyl}-1-diethylamino-ethyl)-oxazol-5-yl]-methylamine]	76
CN(C)C(c1ccc(Cl)cc1)C1CCC(CC(c2nc(Cc3ccccc3)c(N3CCC(Cc4ccccc4)CC3)o2)N2CCN(Cc3ccccc3)CC2)CC1 (stereo not shown) [compound 62, [{4-[2-[4-benzyl-5-(4-benzyl-piperidin-1-yl)-oxazol-2-yl]-2-(4-benzyl-piperazin-1-yl)-ethyl]-cyclohexyl}-(4-chlorophenyl)-methyl]-dimethylamine]	87
CN(C)C(c1ccc(Cl)cc1)C1CCC(CC(c2nc(Cc3ccccc3)c(N3CCN(Cc4ccccc4)CC3)o2)N2CCN(Cc3ccccc3)CC2)CC1 (stereo not shown) [compound 63, [{4-[2-[4-benzyl-5-(4-benzylpiperazin-1-yl)-oxazol-2-yl]-2-(4-benzyl-piperazin-1-yl)-ethyl]-cyclohexyl}-(4-chlorophenyl)-methyl]-dimethylamine]	78
CC1CCN(c2oc(C(CC3CCC(C(c4ccc(Cl)cc4)N(C)C)CC3)N3CCN(Cc4ccccc4)CC3)nc2Cc2ccccc2)CC1 (stereo not shown) [compound 64, [{4-[2-[4-benzyl-5-(4-methylpiperidin-1-yl)-oxazol-2-yl]-2-(4-benzyl-piperazin-1-yl)-ethyl]-cyclohexyl}-(4-chlorophenyl)-methyl]-dimethylamine]	69
CC1CCN(c2oc(C(CC3CCC(C(c4ccc(F)cc4)N(C)C)CC3)N3CCCCC3)nc2Cc2ccccc2)CC1 (stereo not shown) [compound 65, [(4-{2-[4-benzyl-5-(4-methylpiperidin-1-yl)-oxazol-2-yl]-2-piperidin-1-yl-ethyl}-cyclohexyl)-(4-fluorophenyl)-methyl]-dimethylamine]	61
CN(Cc1ccccc1)c1oc(C(CC2CCC(C(c3ccc(F)cc3)N(C)C)CC2)N2CCCCC2)nc1Cc1ccccc1 (stereo not shown) [compound 66, Benzyl-[4-benzyl-2-(2-{4-[dimethylamino-(4-fluorophenyl)-methyl]-cyclohexyl}-1-piperidin-1-yl-ethyl)-oxazol-5-yl]-methylamine]	65
CCN(CC)C(CC1CCC(C(c2ccc(F)cc2)N(C)C)CC1)c1nc(Cc2ccccc2)c(N2CCC(Cc3ccccc3)CC2)o1 (stereo not shown) [compound 67, (1-[4-benzyl-5-(4-benzyl-piperidin-1-yl)-oxazol-2-yl]-2-{4-[dimethylamino-(4-fluorophenyl)-methyl]-cyclohexyl}-ethyl)-diethylamine]	64
